Each block holds one substance with its values, some of them ahead of it. No end group written: not given here.
What was measured:
[1] = system: CD4 and CD8 T cells; details: cited from earlier work
From the text: Expectedly, sections from control groups were negative for all the markers tested except rare CD11b^+ cells.

[2] = system: T cells (lymph node cells/splenocytes from immunized animals); assay: T cell proliferation assay ([3H]-thymidine); assay type: cell-based, A/J mice; details: for T cell responses: fold vs medium control; for T cell responses (in words): proliferation, 0–100 µg/ml, 2 days + 16 h [3H]-thymidine, cpm
Experimental: At termination, lymph nodes (maxillary, mandibular, axillary, inguinal, and popliteal) and spleens were harvested from immunized animals to prepare single cell suspensions. Similarly, splenocytes were prepared from naive animals. After lysing the erythrocytes and washing, cell pellets were suspended in RPMI medium containing 10% fetal bovine serum, 1 mM sodium pyruvate, 4 mM L-glutamine, 1 × each of non-essential amino acids and vitamin mixture, and 100 U/ml penicillin–streptomycin (Lonza, Walkersville, MD, USA; hereafter called growth medium). In some experiments, CD4 T cells and CD8 T cells were enriched to a purity of ~95% by negative selection based on magnetic separation using IMAG (BD Biosciences, San Jose, CA, USA) ([31]). To stimulate CD4 and CD8 T cells, syngeneic naive irradiated splenocytes loaded with peptides were used as antigen-presenting cells at a ratio of 1:1. Cells were stimulated at a density of ~5 × 10^6 cells/ml in triplicates with or without the immunizing peptides (0–100 µg/ml) in growth medium. RNase 43–56 or HEL 46–61 were used as irrelevant controls. After 2 days, cells were pulsed with tritiated ^3[H]-thymidine (1 μCi/well; MP Biomedicals, Santa Ana, CA, USA), and 16 h later, proliferative responses were measured as counts per minute (cpm) using a Wallac liquid scintillation counter (Perkin Elmer, Waltham, MA, USA) ([26], [28], [30]).

[3] = system: CD4 T cells; assay: IA^k dextramer staining of CD4 T cells; assay type: cell-based, A/J mice; details: IA^k dextramers
From the text: To enumerate the frequencies of antigen-specific CD4 T cells, we created IA^k dextramers for β1AR 171-190 and β1AR 211–230, and IE^k dextramers for β1AR 181–200. To create IA^k dextramers, the nucleotide sequence for β1AR 171–190 ([…]) and β1AR 211–230 ([…]) was inserted into the IA^k-β construct that we had described previously ([35], [39]), whereas IA^k/RNase 43–56 (control) dextramers were readily available in our laboratory ([30], [35], [40]). The soluble, IA^k/β1AR 171–190 and IA^k/β1AR 211–230 molecules were expressed in sf9 cells using baculovirus expression system. After purifying through anti-IA^k-affinity column, the IA^k/β1AR 171–190 and IA^k/β1AR 211–230 monomers were biotinylated and dextramers were derived using streptavidin (SA)/fluorophore-conjugated dextran molecules as described previously ([35], [39]). […]
To stain with dextramers, lymphocytes obtained from lymph nodes and spleens from immunized animals were stimulated with the immunizing peptides namely, β1ARAc 171–190, β1ARAc 181–200, and β1ARAc 211–230 (20 µg/ml) for 2 days and growth medium containing interleukin (IL)-2 (IL-2 medium) was then added. […] After washing, and acquisition by flow cytometry, percent dextramer^+ (dext^+) cells were analyzed within the live cells (7-AAD^−) using Flow Jo software ([34], [35], [39]).

[4] = system: serum antibodies (Igs and isotypes) of immunized mice; assay: ELISA, antibodies that react with β1ARAc peptides; assay type: in vivo, A/J mice; details: serum 1:100, day 21, OD 405 nm; for Antibody response, total Igs (in words): five animals per group
Experimental: ELISA was used to measure antibodies that react with β1ARAc peptides in the serum samples collected from immunized animals at termination on day 21 as described previously ([26]). […] After washing/blocking, serum samples (1:100) were added in duplicates, and the plates were incubated at 37°C for 1 h followed by addition of HRP-labeled goat anti-mouse immunoglobulins (Igs), IgG1, IgG2a, IgG2b, IgG3, IgM, IgA, and IgE (Southern Biotech, Birmingham, AL, USA) as secondary antibodies. Two hours after incubation at RT, 1 × tetramethylbenzidine solution was added as a substrate (eBioscience), and reactions were stopped using 1 M phosphoric acid. The plates were read at 405 nm using an automated ELISA reader (BioTek instruments, Winooski, VT, USA) to measure OD values ([26], [46]).

[5] = system: A/J mice (hearts); assay: Induction of myocarditis by active immunization with peptides (histology); assay type: in vivo
[6] = molecular target: T1, IA^k (Mus musculus, UniProt P01910+P06343); assay: MHC class II-binding assay, IA^k; set-up: species or system A/J mice; details: soluble IA^k monomers, reference HEL 46–61; Figure S1B
T1 construct: soluble IA^k and IE^k monomers were expressed; class II-associated invariant-chain peptide (CLIP) 88–102 (VSQMRMATPLLMRPM) with thrombin cleavage site (cleaved yes); made in house; host or cells: baculovirus expression (sf9 cells are named only for the IA^k dextramer constructs)
Experimental: A/J mice express two MHC class II alleles, IA^k and IE^k ([33], [34]), and to determine the affinities of β1AR peptides, soluble IA^k and IE^k monomers were expressed ([34], [35]). In brief, the β-chain in each of IA^k and IE^k constructs contain sequence for class II-associated invariant-chain peptide 88–102 (VSQMRMATPLLMRPM) linked with thrombin cleavage site ([34], [35]). After expressing in the baculovirus, soluble IA^k and IE^k monomers were treated with thrombin (20 U/mg; Novagen, Madison, WI, USA) to release class II-associated invariant-chain peptide leading us to obtain empty IA^k and IE^k molecules. Reaction mixtures were prepared to include empty IA^k or IE^k monomers (0.35 µg), competitor peptides (β1ARAc 171–190, β1ARAc 181–200, β1ARAc 201–220, and β1ARAc 211–230) (0.00001–100 µM), and constant amounts of the biotinylated reference peptides HEL 46–61 (for IA^k) or MCC 82–103 (for IE^k) (1 µM) in a buffer containing 50 mM sodium phosphate pH 7.0, 100 mM sodium chloride, 1 mM EDTA, and 1 × protease inhibitor (Sigma-Aldrich, St. Louis, MO, USA) ([36]–[38]). After incubating overnight at RT, the mixtures were transferred to 96-well white fluorescence plates coated with anti-IA^k (clone 10-2.16, BioXcell, West Lebanon, NH, USA), and anti-IE^k (clone M5/114, BioXcell) Abs (10 µg/ml) in 0.2 M sodium phosphate buffer, pH 6.8, blocked with 2% bovine casein; and the plates were incubated on a rocker at RT for 1 h. Finally, after adding 100 µl of europium-labeled streptavidin (0.1 µg/ml) and dissociation-enhanced lanthanide fluoroimmunoassay (DELFIA) enhancement solution (Perkin Elmer) sequentially, fluorescence intensities were measured at excitation/emission wavelengths of 340/615 nm using a Victor Multilabel Plate Reader (Perkin Elmer). The IC50 values were determined based on the concentrations of competitor peptides needed to prevent 50% binding of the reference peptides as we have described previously ([26], [28], [30]).

[7] = acetylated peptides in CFA/PT (100 µg individually, 50 µg each when pooled), days 0 and 7, day 21

T1 sequence (P01910 24-218 limits assumed): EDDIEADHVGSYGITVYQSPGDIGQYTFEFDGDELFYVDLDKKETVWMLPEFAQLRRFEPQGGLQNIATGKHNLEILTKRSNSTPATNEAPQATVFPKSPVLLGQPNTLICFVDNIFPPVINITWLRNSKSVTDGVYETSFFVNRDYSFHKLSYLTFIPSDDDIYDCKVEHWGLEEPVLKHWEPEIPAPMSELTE
T1 sequence (P06343 28-224 limits assumed): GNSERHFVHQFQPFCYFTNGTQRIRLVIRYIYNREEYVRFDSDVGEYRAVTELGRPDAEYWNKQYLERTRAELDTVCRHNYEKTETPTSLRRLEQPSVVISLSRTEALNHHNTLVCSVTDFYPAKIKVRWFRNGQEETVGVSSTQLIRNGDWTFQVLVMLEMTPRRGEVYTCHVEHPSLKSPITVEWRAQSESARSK

Substance: Myhc 334–352: cardiac myosin heavy chain-α 334–352 (DSAFDVLSFTAEEKAGVYK; UniProt Q02566 334-352, looked up, fragment)
- Common epitope for CD4 and CD8 T cells (in words) [1]: common epitopes for both CD4 and CD8 T cells

Substance: VNTFVHESLADVQA [RNase 43–56, bovine ribonuclease 43–56, irrelevant control, reference compound]
- T cell responses ([2]; 10 μg/ml, animals immunized with pool I): 1.05 fold
- T cell responses ([2]; 10 μg/ml, animals immunized with pool II): 1.06 fold
- T cell responses ([2]; 10 μg/ml, animals immunized with pool III): 1.04 fold
- T cell responses ([2]; 10 μg/ml, animals immunized with pool IV): 1.06 fold
- T cell responses ([2]; 10 μg/ml, animals immunized with pool IX): 0.80 fold
- T cell responses ([2]; 10 μg/ml, animals immunized with pool V): 1.06 fold
- T cell responses ([2]; 10 μg/ml, animals immunized with pool VI): 0.73 fold
- T cell responses ([2]; 10 μg/ml, animals immunized with pool VII): 1.16 fold
- T cell responses ([2]; 10 μg/ml, animals immunized with pool VIII): 0.91 fold
- T cell responses ([2]; 100 μg/ml, animals immunized with pool I): 1.42 fold
- T cell responses ([2]; 100 μg/ml, animals immunized with pool II): 1.20 fold
- T cell responses ([2]; 100 μg/ml, animals immunized with pool III): 1.14 fold
- T cell responses ([2]; 100 μg/ml, animals immunized with pool IV): 1.15 fold
- T cell responses ([2]; 100 μg/ml, animals immunized with pool IX): 0.83 fold
- T cell responses ([2]; 100 μg/ml, animals immunized with pool V): 1.14 fold
- T cell responses ([2]; 100 μg/ml, animals immunized with pool VI): 1.10 fold
- T cell responses ([2]; 100 μg/ml, animals immunized with pool VII): 1.16 fold
- T cell responses ([2]; 100 μg/ml, animals immunized with pool VIII): 0.81 fold
- T cell responses (in words) [2]: lacking
- percent dext^+ CD4^high T cells ([3]; cells from β1ARAc 171–190-immunized mice, P = 0.049 vs control dextramer, Figure 4A): 0.52 ± 0.08%
- percent dext^+ CD4^high T cells ([3]; cells from β1ARAc 211–230-immunized mice, P = 0.0003 vs control dextramer, Figure 4C): 0.12 ± 0.01%
- Antibody response, total Igs (in words) [4]: lacking

Substance: interphotoreceptor retinoid-binding protein 1–20: CD4 and CD8 common epitope (GPTHLFQPSLVLDMAKVLLD; UniProt P10745 18-37, looked up, fragment)
- Common epitope for CD4 and CD8 T cells (in words) [1]: common epitopes for both CD4 and CD8 T cells

Substance: myelin oligodendrocyte glycoprotein 35–55: CD4 and CD8 common epitope (MEVGWYRSPFSRVVHLYRNGK; UniProt Q61885 63-83, looked up, fragment)
- Common epitope for CD4 and CD8 T cells (in words) [1]: common epitopes for both CD4 and CD8 T cells

Substance: β1ARAc 191–210: N-terminal acetylated mouse β1-adrenergic receptor peptide 191–210 (Ac-FLPILMHWWRAESDEARRCY; UniProt P34971 191-210, looked up, fragment)
- T cell responses (in words) [2]: non-T cell activators
- Myocarditis incidence [5, 7]: 0%
- Myocarditis incidence (animals with disease/total) [5, 7]: 0/5
- Inflammatory foci ([5]; acetylated peptides in CFA/PT, mean ± SEM of myocarditic animals, day 21): 0
- Antibody response, total Igs (in words) [4]: to some degree

- IA^k binding (in words) [6]: failed to bind IA^k molecule
Substance: β1ARAc 201–220: N-terminal acetylated mouse β1-adrenergic receptor peptide 201–220 (Ac-AESDEARRCYNDPKCCDFVT; cysteine pairing not given here; UniProt P34971 201-220, looked up, fragment)
- T cell responses (in words) [2]: non-T cell activators
- Myocarditis induction (in words) ([5]; acetylated peptide, standard CFA/PT protocol): failed to induce myocarditis
- Antibody isotypes produced, IgG and IgM (in words) [4]: all IgG isotypes (IgG1, IgG2a, IgG2b, IgG3) including IgM
- Antibody response, total Igs (in words) [4]: antibody response
